{
  "source": "patent US20220273658A1",
  "about": "“SMALL MOLECULE LIVER X RECEPTOR MODULATORS AND USES THEREOF” (University of Houston System, priority 2019, published 2022)",
  "key": {"[1]": {"test_system": "PDAC cells", "test": "cell viability with glutaminase inhibitor BPTES and 1E5", "type": "cell-based, human", "details": "BPTES alone", "description": "TCA cycle intermediates act as anaplerotic substrate for gluconeogenesis and lipogenesis. […] GOT2 converts glutamine-derived glutamate to alpha-KG. During this process oxaloacetate is converted to aspartate which is required to maintain redox homeostasis. Studies have shown that inhibition of GOT2 in PDAC promotes senescence."}, "[2]": {"details": "pre-clinical testing; cited from earlier work"}, "[3]": {"test_system": "PDAC cell lines", "test": "tetrazolium salt reduction (WST) assay in PDAC cell lines", "type": "cell-based, human", "details": "GW3965, WST assay", "procedure": "(§1) To determine the effects of LXR ligands on PDAC cell proliferation, cells were treated with synthetic LXR agonist GW3965 and live cells were quantified using trypan blue exclusion assays. […] FIGS. 8A, 8B, and 8C show dose-dependent decreases in cell proliferation in BxPC-3, Mia-PaCa-2, and PANC-1, respectively upon treatment with increasing GW3965 concentrations. […] Clonogenic assays were also employed to evaluate the effects of long-term LXR ligand treatment on cell proliferation and colony formation. […] These findings indicate that LXRs are involved in PDAC cell proliferation and targeting LXRs with ligands perturb their normal functions in cell proliferation.\n(§2) The initial identification and subsequent characterization of the two novel LXR ligands and their derivative compounds was carried out in screens in three human pancreatic cancer cell and one non-transformed human pancreatic epithelial cell line in three or more replicate experiments for each cell line using the WST tetrazolium salt reduction assays."}, "[4]": {"test_system": "PDAC cell lines", "test": "MTS assay of overall cell metabolic rate", "type": "cell-based, human", "details": "increasing concentrations of GW3965"}, "[5]": {"test_system": "myeloid-derived suppressor cells (MDSCs)", "details": "in vivo; cited from earlier work"}, "[6]": {"test_system": "BxPC-3-luc2 cells", "test": "orthotopic xenograft mouse model of pancreatic cancer", "type": "in vivo", "description": "Data from studies using cultured cancer cell lines indicate that LXR agonists have anti-proliferative effects on PDAC cells by disrupting cell cycle progression and expression of key regulatory proteins and growth pathways. To determine the effects of ligands in vivo using a live imaging system, BxPC-3 cells engineered with […] firefly luciferase gene (BxPC-3-luc2) were obtained from a commercial source (Perkin Elmer) and then validated for luciferase expression and response to GW3965 treatment in culture. […] NCr athymic nude mice (n=5 per treatment group) were orthotopically injected with BxPC-3-luc2 cells and then gavaged daily with GW3965 dissolved in 0.5% methylcellulose or vehicle only. Animals were anesthetized, injected with luciferin, and imaged weekly to monitor and quantify tumor growth. […] Experiments were terminated after two weeks due to the morbidity associated with the tumor burden in test animals. […] Statistically significant differences in additive effects as compared to single compound treatments are denoted with asterisks."}, "[7]": {"test_system": "PDAC cell lines", "test": "clonogenic assay, colony formation", "type": "cell-based, human", "details": "long-term treatment, each cell line", "procedure": "as §1"}, "[8]": {"test_system": "BxPC-3, Mia-PaCa-2, and PANC-1", "test": "cell proliferation, live cells quantified by trypan blue exclusion", "type": "cell-based, human", "details": "increasing GW3965 concentrations; all three cell lines", "procedure": "as §1"}, "[9]": {"test_system": "LXR target genes SREBF1c, ABCA1, and ABCG1", "test": "expression of LXR target genes in pancreatic cancer cell lines", "type": "cell-based, human", "details": "for expression of LXR target genes: three pancreatic cancer cell lines", "description": "To characterize the activity of the newly discovered ligands, the expression of LXR target genes SREBF1c, ABCA1, and ABCG1 was examined following treatment with vehicle, synthetic agonist GW3965, and Compounds 1E5 and 3A4. […] Basal expression of SREBF1c, the canonical LXR target gene involved in the regulation of glucose and lipid metabolism, was disrupted by the addition of novel LXR ligands, whereas their expression was induced following treatment with synthetic agonist GW3965 in all three pancreatic cancer cell lines tested, whereas the effects on ABCA1 and ABCG1 varied between the two novel ligands and across the cell lines.\n(§3) To elucidate mechanisms of inverse agonism by the novel ligands, TR-FRET experiments were conducted to determine the effects of 1E5 and 3A4 on the recruitment of NR co-activators and co-repressors. […] In addition to their functions as inverse agonists, extended treatments with 1E5 and 3A4 also destabilized or decreased LXR proteins."}, "[10]": {"test_system": "PDAC cells", "test": "treatment of PDAC cells with KD-01-39 (FIG. 32)", "type": "cell-based, human", "details": "all cancer lines tested", "description": "(§4) The synthesis and characterization of KD-01-39, a derivative of 3A4, have not been described previously."}, "[11]": {"test_system": "KPC tumor cells", "test": "growth of KPC tumor cells from mouse model of PDAC", "type": "cell-based", "description": "The effects of the ligands and derivatives on the growth of PDAC cells were further validated by cell counting and clonogenic assays."}, "[12]": {"test_system": "LXR-LBD", "test": "differential scanning fluorimetry", "type": "binding", "description": "as §4"}, "[13]": {"test_system": "LXR ligand-binding domain", "test": "TR-FRET assay of co-activator and co-repressor peptide recruitment", "type": "biochemical", "procedure": "as §3, §4"}, "[14]": {"test_system": "HPNE cells", "test": "growth of non-transformed pancreatic epithelial cells (WST screen; FIG. 32D)", "type": "cell-based, human", "details": "FIG. 32(D)", "procedure": "as §2, §4"}, "[15]": {"test_system": "MDSC and CD8+ T-cells", "details": "in vivo; cited from earlier work"}, "[16]": {"test_system": "PDAC", "details": "PDAC patients; cited from earlier work"}},
  "data": [
    {"smiles": "O=C(Cc1ccccc1)Nc1nnc(CCSCCc2nnc(NC(=O)Cc3ccccc3)s2)s1", "note": "[BPTES, reference compound]", "values": [
      {"measurement": "pancreatic cancer cell viability", "setting": "[1]", "value": "reduced pancreatic cancer cell viability"}
    ]},
    {"smiles": "O=S(=O)(c1ccccc1)N(CC(F)(F)F)c1ccc(C(O)(C(F)(F)F)C(F)(F)F)cc1", "note": "[Compound T0901317]", "values": [
      {"measurement": "circulating and liver triglyceride levels", "setting": "[2]", "value": "increased circulating and liver triglyceride levels"}
    ]},
    {"smiles": "O=C(O)Cc1cccc(OCCCN(Cc2cccc(C(F)(F)F)c2Cl)CC(c2ccccc2)c2ccccc2)c1", "note": "[GW3965]", "values": [
      {"measurement": "growth of PDAC cell lines", "setting": "[3]", "value": "suppressed the growth of PDAC cell lines in a dose-dependent manner"},
      {"measurement": "overall metabolism (MTS)", "setting": "[4]", "value": "dose-dependent drop in overall metabolism"},
      {"measurement": "anti-tumor effects of PD-1 inhibitor immunotherapy", "setting": "[5]", "value": "enhanced the anti-tumor effects of PD-1 inhibitor immunotherapy"},
      {"measurement": "recruitment and apoptosis of immunosuppressive MDSCs", "setting": "[5]", "value": "blocked the recruitment and increased apoptosis"},
      {"measurement": "tumor growth (luciferase signal)", "setting": "[6]; 40 mg/kg and 80 mg/kg, daily gavage, one and two weeks", "value": "reduced tumor growth"},
      {"measurement": "tumor size, post-mortem examination", "setting": "[6]; control vs treated animals", "value": "significant differences in tumor size"},
      {"measurement": "bioavailability following ingestion", "setting": "[6]; daily gavage", "value": "confirmed the bioavailability"},
      {"measurement": "toxicity following ingestion", "setting": "[6]; mouse, in vivo", "value": "low toxicity"},
      {"measurement": "colony formation", "setting": "[7]", "value": "strongly inhibited colony formation"},
      {"measurement": "cell proliferation", "setting": "[8]", "value": "significantly inhibited"},
      {"measurement": "basal expression of SREBF1c", "setting": "[9]; all three pancreatic cancer cell lines", "value": "induced"},
      {"measurement": "expression of LXR target genes", "setting": "[9]", "value": "increased target gene expression"},
      {"measurement": "circulating and liver triglyceride levels", "setting": "[2]", "value": "increased circulating and liver triglyceride levels"}
    ]},
    {"smiles": "COc1cc(OC)cc(C(=O)N2CCN(c3ccccc3Br)CC2)c1", "note": "[KD-01-39]", "values": [
      {"measurement": "efficacy against cancer lines compared with 3A4", "setting": "[10]", "value": "same or similar efficacy as 3A4"},
      {"measurement": "growth of KPC tumor cells", "setting": "[11]", "value": "inhibition of pancreatic cancer cells"},
      {"measurement": "LXR-LBD structure and dye dissociation with increasing temperature", "setting": "[12]", "value": "disrupted the LBD structure"},
      {"measurement": "co-activator peptide binding to LXR ligand-binding domain", "setting": "[13]; co-activator (D22) peptide", "value": "did not affect recruitment of co-activator peptides"},
      {"measurement": "binding of NCOR and SMRT co-repressor peptides", "setting": "[13]; co-repressor (NCOR and SMRT-ID2) peptides", "value": "enhanced recruitment of NCOR and SMRT co-repressor peptides in a dosage dependent manner"},
      {"measurement": "expression of LXR target genes", "setting": "[9]", "value": "decreased the expression of LXR target genes"},
      {"measurement": "effect on non-cancerous pancreatic HPNE cells", "setting": "[14]", "value": "minimal effect"}
    ]},
    {"smiles": "C[C@H](CCOc1cccc(CC(=O)O)c1)N(Cc1cccc(C(F)(F)F)c1Cl)CC(c1ccccc1)c1ccccc1", "note": "[RGX-104]", "values": [
      {"measurement": "anti-tumor effects of PD-1 inhibitor immunotherapy", "setting": "[5]", "value": "enhanced the anti-tumor effects of PD-1 inhibitor immunotherapy"},
      {"measurement": "recruitment and apoptosis of immunosuppressive MDSCs", "setting": "[5]", "value": "blocked the recruitment and increased apoptosis"}
    ]},
    {"smiles": "Cc1cc(C)c(S(=O)(=O)N(CCc2cccc(Br)c2)Cc2ccc(-c3cccc(S(C)(=O)=O)c3)cc2)c(C)c1", "note": "[SR9243]", "values": [
      {"measurement": "MDSC recruitment to tumors", "setting": "[15]", "value": "decreased MDSC recruitment to tumors"},
      {"measurement": "expansion and recruitment of tumor-killing CD8+ T-cells", "setting": "[15]", "value": "increased the expansion and recruitment"}
    ]},
    {"smiles": "Nc1ccn([C@@H]2O[C@H](CO)[C@@H](O)C2(F)F)c(=O)n1", "note": "[gemcitabine]", "values": [
      {"measurement": "improvement of median survival", "setting": "[16]", "value": "approximately two weeks"}
    ]}
  ]
}
